The target in one experiment is K-Ras G12D (Homo sapiens, UniProt P01116, G12D). In words: K-Ras G12D activation by SOS1 (KRAS G12D activation by SOS1cat assay, HTRF). The format is biochemical. The settings on record: mean, SOS1cat mediated loading of GST-KRAS G12D-GDP with fluorescent GTP analogue, read-out: K-Ras G12D activation by SOS1 IC50 - [mol/l] (mean). The method, then: (§1) Preparation of test compound dilutions. A 100-fold concentrated solution of the test compound (50 nL) in DMSO was transferred to microtiter test plates (384 or 1,536 wells, Greiner Bio-One, Germany) using either a Hummingbird liquid handler (Digilab, MA, USA) or an Echo acoustic system (Labcyte, CA, USA). Plates were sealed with adhesive foil or heat-sealed and stored at −20 C until use. Serial dilutions of test compounds were prepared in 100% DMSO using a Precision Pipetting System (BioTek, USA).
(§2) Measurement and evaluation of inhibition data, calculation of IC50 values. Homogeneous time-resolved fluorescence (HTRF) was measured with a PHERAstar reader (BMG, Germany) using the HTRF module (excitation: 337 nm; emission 1: 620 nm, emission 2: 665 nm). The ratio of the emissions at 665 and 620 nm was used as the specific signal for further evaluation. The data were normalized using the controls: DMSO=0% inhibition, inhibition control wells with inhibitor control solution=100% inhibition. Compounds were tested in duplicates at up to 11 concentrations (e.g. 20 μM, 5.7 μM, 1.6 μM, 0.47 μM, 0.13 μM, 38 nM, 11 nM, 3.1 nM, 0.89 nM, 0.25 nM and 0.073 nM). IC50 values were calculated using a four-parameter fit, with a commercial software package (Genedata Screener, Switzerland).
(§3) KRAS^G12C activation by SOS1^cat assay (“On-assay”). This assay quantifies SOS1^cat mediated loading of KRAS^G12C-GDP with a fluorescent GTP analogue. Detection of successful loading was achieved by measuring resonance energy transfer from anti-GST-terbium (FRET donor) bound to GST-KRAS^G12C to the loaded fluorescent GTP analogue (FRET acceptor). The fluorescent GTP analogue EDA-GTP-DY-647P1 [2′/3′-O-(2-aminoethyl-carbamoyl)guanosine-5′-triphosphate labelled with DY-647P1 (Dyomics GmbH, Germany)] was synthesized by Jena Bioscience (Germany) and supplied as a 1 mM aqueous solution. A KRAS^G12C working solution was prepared in assay buffer [10 mM HEPES pH 7.4 (AppliChem), 150 mM NaCl (Sigma), 5 mM MgCl2 (Sigma), 1 mM DTT (Thermo Fisher), 0.05% BSA Fraction V pH 7.0 (ICN Biomedicals), 0.0025% (v/v) Igepal (Sigma)] containing GST-KRAS^G12C (final concentration in assay 50 nM) and anti-GST-terbium (Cisbio, France) (final concentration in assay 1 nM). A SOS1^cat working solution was prepared in assay buffer containing SOS1^cat (final concentration 10 nM) and EDA-GTP-DY-647P1 (final concentration 100 nM). An inhibitor control solution was prepared in assay buffer containing EDA-GTP-DY-647P1 (final concentration 100 nM) without SOS1^cat. All steps of the assay were performed at 20° C. A volume of 3 μL of the KRAS^G12C working solution was added to all wells of the test plate using a Multidrop dispenser (Thermo LabSystems). After 15 min, 2 μL of the SOS1^ct working solution was added to all wells, except for the inhibitor control solution wells. After 30 min incubation, HTRF was measured.
(§4) G12D and Wild-type KRAS activation by SOS1cat assays. These assays quantify human SOS1^cat mediated loading of wild-type GST-KRAS^WT-GDP or GST-KRAS^G12D-GDP with a fluorescent GTP analogue. The assay was performed similarly to the KRAS^G12C activation by SOS1^cat assay with the following differences: final concentration of SOS1^cat of 60 nM and final incubation time before measurement of 10 min for KRAS^G12D assay, final concentration of SOS1^cat of 20 nM and final incubation time before measurement of 15 min for wild-type KRAS assay, respectively. GST-KRAS^G12C was replaced by GST-KRAS^WT or GST-KRAS^G12D, respectively, also at 50 nM final concentration.
KRAS^G12D activation by SOS1^cat assay (“On-assay”). This assay quantifies SOS1^cat mediated loading of KRAS^G12D-GDP with a fluorescent GTP analogue. Detection of successful loading was achieved by measuring resonance energy transfer from anti-GST-terbium (FRET donor) bound to GST-KRAS^G12D to the loaded fluorescent GTP analogue (FRET acceptor).
(In general: Time-resolved FRET reads energy transfer from a long-lived donor to a nearby acceptor.)

The next experiment addresses K-Ras-wildtype (Homo sapiens, UniProt P01116). Nature of the experiment: K-Ras-wildtype activation by SOS1 (wild-type KRAS activation by SOS1cat assay, HTRF). The format is biochemical. The settings on record: mean, SOS1cat mediated loading of wild-type GST-KRAS-GDP with fluorescent GTP analogue, read-out: K-Ras-wildtype activation by SOS1 IC50 - [mol/l] (mean). The method, then:
as §1, §2, §3, §4
Wild-type KRAS activation by SOS1^cat assay. This assay quantifies human SOS1^cat mediated loading of wild-type GST-KRAS-GDP with a fluorescent GTP analogue. The assay was performed similarly to the KRAS^G12D activation by SOS1^cat assay just by replacement of GST-KRAS^G12D by wild-type GST-KRAS while concentrations of all components and incubation times were the same.

Bounds are passed on as bounds.

Chain of K-Ras-wildtype (P01116 1-188 isoform P01116-2): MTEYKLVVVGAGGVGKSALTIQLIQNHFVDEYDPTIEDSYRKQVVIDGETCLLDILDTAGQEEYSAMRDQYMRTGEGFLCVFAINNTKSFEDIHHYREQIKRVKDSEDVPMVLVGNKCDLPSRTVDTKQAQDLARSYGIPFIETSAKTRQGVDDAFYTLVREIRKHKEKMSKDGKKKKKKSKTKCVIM
Chain of K-Ras G12D (P01116 1-188 isoform P01116-2 G12D): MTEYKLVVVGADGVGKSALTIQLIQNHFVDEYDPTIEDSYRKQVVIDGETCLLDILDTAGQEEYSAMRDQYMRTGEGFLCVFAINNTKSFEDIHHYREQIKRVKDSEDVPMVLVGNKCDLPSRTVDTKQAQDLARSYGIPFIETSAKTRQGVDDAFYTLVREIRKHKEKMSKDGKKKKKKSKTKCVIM

As to `Oc1cc(Nc2nc3c(N4CC5CCC(C4)N5)nc(OCC45CCCN4CCC5)nc3s2)c2ccccc2c1` [Example 7, 4-({7-(3,8-diazabicyclo[3.2.1]octan-3-yl)-5-[(tetrahydro-1H-pyrrolizin-7a(5H)-yl)methoxy][1,3]thiazolo[5,4-d]pyrimidin-2-yl}amino)naphthalen-2-ol], the IC50 is 3360 nM on K-Ras G12D and ≥ 20000 nM on K-Ras-wildtype.
In the case of `Cn1c(Oc2cc(O)cc3cccc(F)c23)nc2c(N3CC4CCC(C3)N4)nc(OCC34CCCN3CCC4)nc21` [Example 8, 4-({6-(3,8-diazabicyclo[3.2.1]octan-3-yl)-9-methyl-2-[(tetrahydro-1H-pyrrolizin-7a(5H)-yl)methoxy]-9H-purin-8-yl}oxy)-5-fluoronaphthalen-2-ol], the IC50 on K-Ras G12D and at K-Ras-wildtype was > 20000 nM in each case.
With `Cn1c(Oc2cc(O)cc3ccccc23)nc2c(N3CC4CCC(C3)N4)nc(OCC34CCCN3CCC4)nc21` [Example 9, 4-({6-(3,8-diazabicyclo[3.2.1]octan-3-yl)-9-methyl-2-[(tetrahydro-1H-pyrrolizin-7a(5H)-yl)methoxy]-9H-purin-8-yl}oxy)naphthalen-2-ol], the IC50 at K-Ras G12D and on K-Ras-wildtype was > 20000 nM throughout.
On to `Oc1cc(Oc2nc3c(N4CC5CCC(C4)N5)nc(OCC45CCCN4CCC5)nc3[nH]2)c2ccccc2c1` [Example 10, 4-({6-(3,8-diazabicyclo[3.2.1]octan-3-yl)-2-[(tetrahydro-1H-pyrrolizin-7a(5H)-yl)methoxy]-9H-purin-8-yl}oxy)naphthalen-2-ol], for which the IC50 on K-Ras G12D and on K-Ras-wildtype was > 20000 nM each time.
Consider `Oc1cc(Oc2nc3c(N4CC5CCC(C4)N5)nc(OCC45CCCN4CCC5)nc3[nH]2)c2c(F)cccc2c1` [Example 11, 4-({6-(3,8-diazabicyclo[3.2.1]octan-3-yl)-2-[(tetrahydro-1H-pyrrolizin-7a(5H)-yl)methoxy]-9H-purin-8-yl}oxy)-5-fluoronaphthalen-2-ol], for which the IC50 at K-Ras G12D and on K-Ras-wildtype was > 20000 nM in each case.
Take `C#Cc1c(F)ccc2cc(O)cc(Oc3nc4c(N5CC6COCC(C5)N6)nc(OC[C@@]56CCCN5C[C@H](F)C6)nc4s3)c12` [Example 12, 5-ethynyl-6-fluoro-4-{[5-{[(2R,7aS)-2-fluorotetrahydro-1H-pyrrolizin-7a(5H)-yl]methoxy}-7-(3-oxa-7,9-diazabicyclo[3.3.1]nonan-7-yl)[1,3]thiazolo[5,4-d]pyrimidin-2-yl]oxy}naphthalen-2-ol]: the values for the IC50 at K-Ras G12D and at K-Ras-wildtype were 23.7 nM and 15.8 nM, respectively.
As to `C#Cc1c(F)ccc2cc(O)cc(Oc3nc4c(N5CC6COCC(C5)N6)nc(OCC56CCCN5CCC6)nc4s3)c12` [Example 13, 5-ethynyl-6-fluoro-4-({7-(3-oxa-7,9-diazabicyclo[3.3.1]nonan-7-yl)-5-[(tetrahydro-1H-pyrrolizin-7a(5H)-yl)methoxy][1,3]thiazolo[5,4-d]pyrimidin-2-yl}oxy)naphthalen-2-ol], the IC50 stood at 25.6 nM on K-Ras G12D and 15.3 nM at K-Ras-wildtype.
The matching figures for `Oc1cc(Cc2nc3c(N4CC5CCC(C4)N5)nc(OCC45CCCN4CCC5)nc3s2)c2c(F)cccc2c1` [Example 14, 4-({7-(3,8-diazabicyclo[3.2.1]octan-3-yl)-5-[(tetrahydro-1H-pyrrolizin-7a(5H)-yl)methoxy][1,3]thiazolo[5,4-d]pyrimidin-2-yl}methyl)-5-fluoronaphthalen-2-ol]: 635 nM and > 20000 nM.
On to `Oc1cc(Oc2nc3c(N4CC5CCC(C4)N5)nc(OCC45CCCN4CCC5)nc3s2)c2c(Cl)cccc2c1` [Example 15, Formic acid-5-Chlor-4-{[7-(3,8-diazabicyclo[3.2.1]octan-3-yl)-5-(tetrahydro-1H-pyrrolizin-7a(5H)-ylmethoxy)[1,3]thiazolo[5,4-d]pyrimidin-2-yl]oxy}-2-naphthol (2:1)], for which the IC50 was 35.3 nM on K-Ras G12D and 1070 nM at K-Ras-wildtype.
The matching figures for `C=Cc1c(F)ccc2cc(O)cc(Oc3nc4c(N5CC6CCC(C5)N6)nc(OC[C@@]56CCCN5C[C@H](F)C6)nc4s3)c12` [Example 17, 4-{[7-(3,8-diazabicyclo[3.2.1]octan-3-yl)-5-{[(2R,7aS)-2-fluorotetrahydro-1H-pyrrolizin-7a(5H)-yl]methoxy}[1,3]thiazolo[5,4-d]pyrimidin-2-yl]oxy}-5-ethenyl-6-fluoronaphthalen-2-ol]: 13.4 nM and 425 nM.
In the case of `Cn1c(Oc2cc(O)cc3ccccc23)nc2nc(OCC34CCCN3CCC4)nc(N3CC4CCC(C3)N4)c21` [Example 18, 4-({6-(3,8-diazabicyclo[3.2.1]octan-3-yl)-7-methyl-2-[(tetrahydro-1H-pyrrolizin-7a(5H)-yl)methoxy]-7H-purin-8-yl}oxy)naphthalen-2-ol], the IC50 at K-Ras G12D was 15300 nM; at K-Ras-wildtype it was > 20000 nM.
For `C#Cc1c(F)ccc2cc(O)cc(Oc3nc4c(N5CC6COCC(C5)N6)nc(OC[C@@]56CCCN5C[C@H](F)C6)nc4s3)c12` [Example 19, 5-ethynyl-6-fluoro-4-{[5-{[(2R,7aS)-2-fluorotetrahydro-1H-pyrrolizin-7a(5H)-yl]methoxy}-7-(3-oxa-7,9-diazabicyclo[3.3.1]nonan-7-yl)[1,3]thiazolo[5,4-d]pyrimidin-2-yl]oxy}naphthalen-2-ol], in that order: 14.3 nM and 10.7 nM.
The matching figures for `C#Cc1c(F)ccc2cc(O)cc(Oc3nc4nc(OCC56CCCN5CCC6)nc(N5CC6CCC(C5)N6)c4n3C)c12` [Example 22, 4-({6-(3,8-diazabicyclo[3.2.1]octan-3-yl)-7-methyl-2-[(tetrahydro-1H-pyrrolizin-7a(5H)-yl)methoxy]-7H-purin-8-yl}oxy)-5-ethynyl-6-fluoronaphthalen-2-ol]: 89.5 nM and > 20000 nM.
The matching figures for `C#Cc1c(Cl)ccc2cc(O)cc(Oc3nc4c(N5CC6CCC(C5)N6)nc(OC[C@@]56CCCN5C[C@H](F)C6)nc4s3)c12` [Example 23, 6-chloro-4-{[7-(3,8-diazabicyclo[3.2.1]octan-3-yl)-5-{[(2R,7aS)-2-fluorotetrahydro-1H-pyrrolizin-7a(5H)-yl]methoxy}[1,3]thiazolo[5,4-d]pyrimidin-2-yl]oxy}-5-ethynylnaphthalen-2-ol]: 4.9 nM and 95 nM.
As to `Oc1cc(Nc2nc3c(N4CC5CCC(C4)N5)nc(OC[C@@]45CCCN4C[C@H](F)C5)nc3s2)c2ccccc2c1` [Example 28, 4-{[7-(3,8-diazabicyclo[3.2.1]octan-3-yl)-5-{[(2R,7aS)-2-fluorotetrahydro-1H-pyrrolizin-7a(5H)-yl]methoxy}[1,3]thiazolo[5,4-d]pyrimidin-2-yl]amino}naphthalen-2-ol], the IC50 is 1410 nM at K-Ras G12D and > 20000 nM at K-Ras-wildtype.

(Values after patent US20250154170A1, “FUSED PYRIMIDINES AS KRAS INHIBITORS” (priority 2022, published 2025).)
